# Assay results as given in US20230372529A1, “MITOCHONDRIA COMPRISING ANTICANCER DRUG AND USE THEREOF” (Paean Biotechnology Inc., priority 2020, published 2023).
# B1: anti-PDL1scFv antibody fused to the mitochondrial outer membrane (scFvPDL1-myc-TOM7) (scFv)
# scFv: MDIVMSQSPSSLAVSAGEKVTMSCKSSQSLLNSRTRKNYLAWYQQKPGQSPKLLIYWASTRESGVPDRFTGSGSGTDFTLTISSVQAEDLAVYYCQQSYDVVTFGAGTKLELKGGGGSGGGGSGGGGSQVQVQQSGAELAEPGASVKMSCKASGYIFTSYWMHWLKQRPGQGLEWIGYINPSSDYNEYSEKFMDKATLTADKASTTAYMQLISLTSEDSAVYYCARSGWLVHGDYYFDYWGQGTTLTVSSEQKLISEEDLVKLSKEAKQRLQQLFKGSQFAIRWGFIPLVIYLGFKRGADPGMPEPTVLSLLWG
# notes: In the assay the fusion protein was anchored on the outer membrane of mitochondria isolated from HEK293 cells (MT^α-PDL1scFv); also called MT^α-PDL1scFv; single chain variable region fragment of an anti-PDL1 antibody
# Key:
# [1] = tested on: SK-BR-3, BT-474, MDA-MB-231, NCI-H1975, MKN-74 and NCI-N87; assay: proliferation inhibition at the same concentration, WST-1 assay, cancer cells (DOX series); type: cell-based; conditions: Homo sapiens, 144 hours, read-out: cell proliferation inhibitory effect compared to the untreated group, cancer cells
# Protocol: (§1) 200 μg of MT^α-HER2scFv and 100 μM doxorubicin (DOX) were reacted in the same manner as in Preparation Example 2 above. In order to compare the influence of the obtained DOX_MT^α-HER2scFv on cell proliferation in cancer cells and normal cells, after treatment with DOX_MT^α-HER2scFv at the same concentration in the human breast cancer, lung cancer, gastric cancer cell lines and the lung fibroblast cell line, the cell proliferation inhibitory ability was measured.
# (§2) Specifically, the human breast cancer (SK-BR-3, BT-474 and MDA-MB-231), lung cancer (NCI-H1975), gastric cancer (MKN-74 and NCI-N87) cell lines and the lung fibroblast cell line (CCD-8Lu and WI-38) were inoculated into a 96-well plate at about 3×10^3 cells/well, respectively, and cultured for 24 hours. At this time, SK-BR-3, BT-474 and NCI-N87 cells were cultured in RPMI-1640 medium containing 10% FBS. MDA-MB-231, NCI-H1975, MKN-74, CCD-8Lu, and WI-38 cells were cultured in DMEM medium containing 10% FBS. After culturing for 24 hours, the cells were treated with 0.5 μM doxorubicin (DOX) or DOX_MT^α-HER2scFv respectively, and after 144 hours, the cell proliferation inhibitory ability was evaluated by WST-1 assay. […] Statistical processing was performed using Graphpad 5.0 software, and p values were measured with one-way ANOVA (Turkey's) test (*p<0.05, **p<0.01, and ***p<0.001).
# [2] = tested on: human lung fibroblast cell lines WI-38 and CCD-8Lu; assay: proliferation inhibition in normal cells for each concentration, WST-1 assay (DOX series); type: cell-based; conditions: 0.01 to 2 μM, 144 hours
# Protocol: 200 μg of MT^α-HER2scFv and 100 μM doxorubicin (DOX) were reacted in the same manner as in Preparation Example 2 above. In order to confirm the influence of the obtained DOX_MT^α-HER2scFv on cell proliferation in normal cells, the cell proliferation inhibitory effect by treatment with DOX_MT^α-HER2scFv in human lung fibroblasts was evaluated.
# (§3) Specifically, the human lung fibroblast cell lines WI-38 and CCD-8Lu were inoculated into a 96-well plate at about 3×10^3 cells/well, respectively, and cultured for 24 hours. At this time, WI-38 and CCD-8Lu were cultured in DMEM medium containing 10% FBS. After culturing for 24 hours, each cell was treated with doxorubicin (DOX) or DOX_MT^α-HER2scFv at a concentration of 2 μM, 1 μM, 0.5 μM, 0.25 μM, 0.1 μM, 0.05 μM, 0.025 μM, and 0.01 μM. After 144 hours of sample treatment, cell proliferation was measured by WST-1 assay.
# [3] = tested on: SK-BR-3, BT-474, MDA-MB-231, NCI-H1975, NCI-N87 and MKN-74; assay: cancer cell proliferation inhibition for each concentration, WST-1 assay (DOX series); type: cell-based, human; conditions: 0.01 to 2 μM, 144 hours, versus untreated group (NC)
# Protocol: as §3, with “human breast cancer (SK-BR-3, BT-474 and MDA-MB-231),” for “human”, “cancer (NCI-H1975) and gastric cancer (NCI-N87 and MKN-74)” for “fibroblast”, “lines” for “lines WI-38 and CCD-8Lu”, “SK-BR-3, BT-474” for “WI-38”, “NCI-N87 cells were cultured in RPMI-1640 medium containing 10% FBS, and MDA-MB-231, NCI-H1975 and MKN-74 cells” for “CCD-8Lu”
# [4] = tested on: lung fibroblast cell line (CCD-8Lu and WI-38); assay: proliferation inhibition at the same concentration, WST-1 assay, normal cells (DOX series); type: cell-based; conditions: Homo sapiens, 144 hours, read-out: cell proliferation inhibitory effect compared to the untreated group, normal cells
# Protocol: as §1, §2
# [5] = tested on: mouse melanoma cell line B16F10 overexpressing human HER2, allograft; assay: anticancer activity of DOX_MT^α-HER2scFv in allograft tumor animal model; type: in vivo; conditions: MT^α-HER2scFv 20 μg, DOX 4 μg, DOX_MT^α-HER2scFv 4 μg/20 μg, intravenously 3 times a week for 3 weeks
# Source text: 7-week-old C57BL/6 female mice (Samtako Bio Korea) were acclimatized for 1 week, and then the mouse melanoma cell line B16F10 was subcutaneously transplanted into the lateral abdomen of the mice at about 5×10^5 cells/mouse to construct an allograft tumor mouse. At this time, B16F10 cells in which the human HER2 gene was overexpressed using lentivirus were used as B16F10 cells. When the average volume of the tumor reached 100˜200 mm^3, the mice were divided into 4 groups of 3 mice per test group, and MT^α-HER2scFv (20 μg), DOX (4 μg) or DOX_MT^α-HER2scFv (TPP-DOX/MT: 4 μg/20 μg) was intravenously administered 3 times a week for 3 weeks. The tumor size was measured 3 times a week, and after the end of the experiment (after 3 weeks from the start of administration), the tumor tissues of the mice were extracted, and the size and weight were measured (FIG. 73).
# [6] = tested on: human lung fibroblast cell lines WI-38 and CCD-8Lu; assay: proliferation inhibition in normal cells for each concentration, WST-1 assay (TPP-DOX series); type: cell-based; conditions: 0.01 to 2 μM, 144 hours
# Protocol: Specifically, the human lung fibroblast cell lines WI-38 and CCD-8Lu were inoculated into a 96-well plate at about 3×10^3 cells/well, respectively, and cultured for 24 hours. At this time, WI-38 and CCD-8Lu were cultured in DMEM medium containing 10% FBS. After culturing for 24 hours, each cell was treated with TPP-DOX or TPP-DOX_MT^α-HER2scFv at a concentration of 2 μM, 1 μM, 0.5 μM, 0.25 μM, 0.1 μM, 0.05 μM, 0.025 μM and 0.01 μM. […] At this time, the mitochondria-only treated group (MT, MT^α-HER2scFv) was used as a negative control for TPP-DOX MT^α-HER2scFv.
# [7] = tested on: SK-BR-3, BT-474, MDA-MB-231, NCI-H1975, NCI-N87 and MKN-74; assay: cancer cell proliferation inhibition for each concentration, WST-1 assay (TPP-DOX series); type: cell-based, human; conditions: 0.01 to 2 μM, 144 hours, versus untreated group (NC)
# Protocol: After culturing for 24 hours, each cell was treated with TPP-DOX or TPP-DOX_MT^α-HER2scFv at a concentration of 2 μM, 1 μM, 0.5 μM, 0.25 μM, 0.1 μM, 0.05 μM, 0.025 μM and 0.01 μM. […] At this time, the mitochondria-only treated group (MT, MT^α-HER2scFv) was used as a negative control for TPP-DOX MT^α-HER2scFv.
# [8] = tested on: mouse melanoma cell line B16F10 overexpressing human HER2, allograft; assay: anticancer activity of TPP-DOX_MT^α-HER2scFv in allograft tumor mouse model; type: in vivo; conditions: MT^α-HER2scFv 20 μg, TPP-DOX 5 μg, TPP-DOX/MT 5 μg/20 μg, intravenously 3 times a week for 3 weeks
# Protocol: 7-week-old C57BL/6 female mice (Samtako Bio Korea) were acclimatized for 1 week, and then the mouse melanoma cell line B16F10 was subcutaneously transplanted into the lateral abdomen of the mice at about 5×10^5 cells/mouse to construct an allograft tumor mouse. […] When the average volume of the tumor reached 100˜200 mm^3, the mice were divided into 4 groups of 3 mice per test group, and MT^α-HER2scFv (20 μg), TPP-DOX (5 μg) or TPP-DOX_MT^α-HER2scFv (TPP-DOX/MT: 5 μg/20 μg) was intravenously administered 3 times a week for 3 weeks. The tumor size was measured 3 times a week, and after the end of the experiment (after 3 weeks from the start of administration), the tumor tissues of the mice were extracted, and the size and weight were measured (FIG. 69).
# [9] = tested on: lung fibroblast cell line (CCD-8Lu and WI-38); assay: proliferation inhibition at the same concentration, WST-1 assay, normal cells (TPP-DOX series); type: cell-based, human; conditions: 0.5 μM, 144 hours
# Protocol: At this time, the mitochondria-only treated group (MT^α-HER2scFv) was used as a negative control for TPP-DOX_MT^α-HER2scFv. Statistical processing was performed using Graphpad 5.0 software, and p values were measured with one-way ANOVA (Turkey's) test (*p<0.05, **p<0.01 and ***p<0.001).
# [10] = tested on: HER2^+ human gastric cancer cell line NCI-N87 xenograft; assay: anticancer activity in NCI-N87 xenograft tumor mouse model; type: in vivo; conditions: 4 μg intravenously
# Protocol: 5-week-old BALB/c male nude mice (initial body weight of 18˜20 g) (Nara Biotech) were acclimatized for 1 week, and then HER2^+ human gastric cancer cell line NCI-N87 was subcutaneously transplanted into the lateral abdomen at 1×10^7 cells/mouse to construct a xenograft tumor model mouse. […] The tumor size was measured at an interval of 2˜4 days, and after 25 days from the start of administration, the tumor tissues were extracted, and the size and weight were measured (FIG. 65).
# [11] = target: T1, PDL1 (human, UniProt Q9NZQ7 19-290); assay: confocal microscopy, MitoTracker Red-stained scFv-fused mitochondria on co-cultured BXPC-3 (PDL1+) and CFPAC-1 (PDL1-) cells
# T1 construct: whole, on cells; also called PDL1 antigen
# T1 sequence (Q9NZQ7 19-290): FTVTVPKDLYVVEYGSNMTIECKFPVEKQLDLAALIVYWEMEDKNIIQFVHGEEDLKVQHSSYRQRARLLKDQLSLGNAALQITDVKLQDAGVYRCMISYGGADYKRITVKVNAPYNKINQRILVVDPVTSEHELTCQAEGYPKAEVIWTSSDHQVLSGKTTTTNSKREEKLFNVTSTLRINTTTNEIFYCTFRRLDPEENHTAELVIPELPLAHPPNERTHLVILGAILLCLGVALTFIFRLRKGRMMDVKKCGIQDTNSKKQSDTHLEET
# Protocol: Mitochondria to be used as samples were prepared by treating untreated HEK293 cells (MT) and HEK293 cells comprising mitochondria fused with an anti-PDL1scFv antibody (MT^{α-PDL1scFv}) with MitoTracker Red to stain the mitochondria, and then isolating the mitochondria. After co-culture for 24 hours, each isolated mitochondrion was treated with the co-cultured cells and reacted for 24 hours (FIG. 47).
# The cells treated in the same manner as in Example 4 above were washed once with PBS, and fixed by adding 3.7% formaldehyde at room temperature for 30 minutes, and then immunocytochemistry staining was performed. At this time, an anti-PDL1 antibody (Cell signaling, 86744) was used as a primary antibody, and Alexa Fluor 488 goat anti-rabbit IgG (H+L) was used as a secondary antibody. The nuclei of the cells were observed by staining with DAPI.
molecule,measurement,setting,value
"COc1cccc2c1C(=O)c1c(O)c3c(c(O)c1C2=O)C[C@@](O)(C(=O)CO)C[C@@H]3O[C@H]1C[C@H](N)[C@H](O)[C@H](C)O1 [DOX, doxorubicin]",inhibition at 0.5 µM,[1],50 to 80%
same,cell proliferation inhibitory ability in normal cells,[2],weaker than that of cancer cells
same,cell proliferation inhibitory effect,[3],inhibited in a concentration-dependent manner
same,inhibition at 0.5 µM,[4],≤ 25%
same,tumor size compared to the control group (CTR),[5],significantly reduced
triphenylphosphonium (TPP)-doxorubicin [TPP-DOX],cell proliferation inhibitory ability in normal cells,[6],weaker than that of cancer cells
same,cell proliferation inhibitory effect,[7],inhibited in a concentration-dependent manner
same,tumor size compared to the control group (CTR),[8],similar
same,"proliferation inhibitory ability, normal cells",[9],weak
same,tumor size by date compared to the control group (CTR),[10],similar
B1,binding result,[11],binds
